In ChEMBL document CHEMBL1201862, “PubChem BioAssay data set” (2004):
The source made the active and inactive calls.

Legend:
HEK293 [1] = assay: cytotoxicity in HEK293T NF-kB-Luc cells, SAR follow-up, cytotoxicity control for NF-kB activator project, cell-based, resazurin fluorescence (AID 493251); format: functional; conditions: Homo sapiens
[2] = cytotoxicity in HEK-293T cells, dose response, cytotoxicity control for TCR NF-kB inhibitor project, luminescence, T-cell screen hits (AID 489026); format: functional, cell-based;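 further: cells exposed to compound about 14 hours before the viability readout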
[3] = target: T1, Microphthalmia-associated transcription factor (Homo sapiens, UniProt O75030); assay: TRPM1 promoter luciferase signal decrease, dose response, MITF inhibitor project, cell-based, SK-MEL-5, cherry-picked, set 3 (AID 493073); format: functional
T1 sequence (O75030 whole entry): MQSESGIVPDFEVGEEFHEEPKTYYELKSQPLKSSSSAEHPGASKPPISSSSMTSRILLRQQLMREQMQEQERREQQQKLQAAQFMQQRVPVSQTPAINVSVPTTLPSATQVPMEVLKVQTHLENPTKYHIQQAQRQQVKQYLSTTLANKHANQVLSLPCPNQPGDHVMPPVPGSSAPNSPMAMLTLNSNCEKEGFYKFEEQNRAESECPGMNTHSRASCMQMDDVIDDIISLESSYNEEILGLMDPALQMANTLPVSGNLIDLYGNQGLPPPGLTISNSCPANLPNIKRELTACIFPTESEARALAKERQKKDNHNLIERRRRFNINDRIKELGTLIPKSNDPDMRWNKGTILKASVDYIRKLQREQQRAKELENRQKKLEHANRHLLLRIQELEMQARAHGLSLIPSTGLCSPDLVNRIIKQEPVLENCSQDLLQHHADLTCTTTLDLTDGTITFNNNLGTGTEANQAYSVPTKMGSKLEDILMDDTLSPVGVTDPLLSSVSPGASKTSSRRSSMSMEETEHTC

Jurkat [4] = assay: SAR Analysis of small molecule inhibitors of T-cell specific antigen receptor-induced NF-kB activation in a Jurkat cell line using a luminescence assay - Set 2. [Related pubchem assays (depositor defined):AID435003, AID435012, AID465]; format: functional, cell-based; conditions: Homo sapiens
HEK293 [5] = assay: SAR Analysis of small molecule inhibitors of T-cell specific antigen receptor-induced NF-kB activation in a HEK-293T cell line using a luminescence assay - Set 2. [Related pubchem assays (depositor defined):AID435003, AID435012, AID489026]; format: functional, cell-based; conditions: Homo sapiens
A-375 [6] = assay: MITF: Counter assay: A375 proliferation Measured in Cell-Based System Using Plate Reader - 2084-03_Inhibitor_Dose_DryPowder_Activity. [Related pubchem assays (depositor defined):AID488944]; format: functional; conditions: Homo sapiens
[7] = inhibitors of firefly luciferase expression or activity, dose response, H4 neuroglioma cells, luminescence (AID 1990); format: functional, cell-based
HEK293 [8] = assay: SAR Analysis of small molecule inhibitors of B-cell specific antigen receptor-induced NF-kB activation in a HEK-293T cell line using a luminescence assay - Set 2. [Related pubchem assays (depositor defined):AID435022, AID435025, AID489021]; format: functional, cell-based; conditions: Homo sapiens
[9] = ZM109 Env clade C HIV-1 fusion inhibitors, dose response, HeLa effector, CEM target cells, luciferase, cherry-pick (AID 652058); format: functional, cell-based
A-375 [10] = assay: A375 melanoma cell viability reduction, dose response, counter-screen for MITF modulator project, cherry-pick samples, set 2 (AID 540335); format: functional, cell-based; conditions: Homo sapiens
[11] = cytotoxicity in HEK-293T cells, dose response, cytotoxicity control for BCR NF-kB inhibitor project, luminescence, B-cell screen hits (AID 489021); format: functional, cell-based;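 further: HEK-293T cells carrying an NF-kB luciferase reporter; cells exposed to compound for about 14 hours before viability readout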
[12] = luciferase signal loss, tTA control fusion, HeLa F-luc tTA cells, dry powder, counter-screen for HIV Env fusion inhibitor project, dose response (AID 687021); format: functional, cell-based
[13] = inhibitors of clade B AD8 Env fusion, dose response, cell-based, cherry-pick (AID 652062); format: functional;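 further: luciferase signal from cell-cell fusion driven by HIV-1 clade B AD8 Env; potency is for inhibitors of fusion seen as a drop in luminescence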
[14] = inhibitors of HIV Env-driven cell fusion, dose response, cherry-pick (AID 652057); format: functional, cell-based
[15] = inhibitors of SNCA 5'UTR-driven reporter translation, confirmation, H4 neuroglioma cells, luminescence (AID 1988); format: functional, cell-based
Jurkat [16] = assay: SAR Analysis of small molecule inhibitors of […] specific antigen receptor-induced NF-kB activation in a Jurkat cell line using a luminescence assay - Set 3. [Related pubchem assays (depositor defined):AID435022, AID435025, AID465]; format: functional, cell-based; conditions: Homo sapiens
[17] = Luminescence Cell-Based Dose Response HTS to Identify Inhibitors of 5'UTR Stem-Loop Driven Prion Protein mRNA Translation in H4 Neuroglioblastoma Cells. [Related pubchem assays: 1827 (Project Summary), 1813 (Primary HTS)]; format: functional
[18] = CEM21 cell cytotoxicity, dose response, cytotoxicity control, plate reader, dry powder (AID 687026); format: functional, cell-based
[19] = Luminescence-based counterscreen assay for KLF5 inhibitors: dose response cell-based high throughput screening assay to identify cytotoxic compounds using the IEC-6 intestinal epithelial cell line. [Related pubchem assays: 1700 (Primary screen.), 1834 (Confirmation screen.), 1858 (Summary AID.), 1905 (Counterscreen.)]; format: functional
Cytochrome P450 2D6 = Cytochrome P450 2D6 (Homo sapiens, UniProt P10635);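 further: CYP2D6 member of a cytochrome P450 panel assay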
Sequence of Cytochrome P450 2D6 (P10635 whole entry): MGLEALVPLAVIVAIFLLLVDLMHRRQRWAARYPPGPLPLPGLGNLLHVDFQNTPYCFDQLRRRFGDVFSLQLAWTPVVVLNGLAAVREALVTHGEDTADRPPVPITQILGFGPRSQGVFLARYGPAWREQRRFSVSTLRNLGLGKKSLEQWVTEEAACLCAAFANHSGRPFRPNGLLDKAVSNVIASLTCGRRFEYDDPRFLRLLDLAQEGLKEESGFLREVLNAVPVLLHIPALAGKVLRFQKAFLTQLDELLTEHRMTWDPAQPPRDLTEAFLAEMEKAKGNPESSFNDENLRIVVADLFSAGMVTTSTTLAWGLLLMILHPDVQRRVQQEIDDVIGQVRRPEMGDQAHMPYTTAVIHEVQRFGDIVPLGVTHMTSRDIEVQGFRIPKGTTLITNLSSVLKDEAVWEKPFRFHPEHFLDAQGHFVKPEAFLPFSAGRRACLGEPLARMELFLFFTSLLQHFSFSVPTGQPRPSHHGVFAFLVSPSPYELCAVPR

Cytochrome P450 2C19 = Cytochrome P450 2C19 (Homo sapiens, UniProt P33261); assay: Cytochrome panel assay with activity outcomes. Panel member name: p450-cyp2c19 Compounds with AC50 equal or less than 10 uM are considered active; format: functional; conditions: read-out: AC50
Sequence of Cytochrome P450 2C19 (P33261 whole entry): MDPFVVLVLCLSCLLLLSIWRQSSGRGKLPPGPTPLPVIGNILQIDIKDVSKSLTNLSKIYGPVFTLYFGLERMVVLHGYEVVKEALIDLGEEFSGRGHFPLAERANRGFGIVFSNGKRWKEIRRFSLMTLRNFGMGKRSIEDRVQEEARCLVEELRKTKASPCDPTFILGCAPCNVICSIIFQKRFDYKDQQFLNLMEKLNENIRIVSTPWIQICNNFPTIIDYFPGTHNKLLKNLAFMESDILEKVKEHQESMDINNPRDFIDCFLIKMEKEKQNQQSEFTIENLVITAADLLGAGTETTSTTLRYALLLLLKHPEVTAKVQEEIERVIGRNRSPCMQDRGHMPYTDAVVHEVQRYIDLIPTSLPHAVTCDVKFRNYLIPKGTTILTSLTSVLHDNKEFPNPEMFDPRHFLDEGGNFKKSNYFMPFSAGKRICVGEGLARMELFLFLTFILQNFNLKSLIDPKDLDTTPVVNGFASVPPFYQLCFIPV

[20] = growth induction of Burl-1 ts yeast mutant, dose response, counter-screen for SUMOylation pathway inhibitor project, whole organism, S. cerevisiae, luminescence (AID 463199); format: functional

Structure (SMILES): Cc1cc(C)cc(NC(=O)c2ccc([N+](=O)[O-])o2)c1
- IC50 (HEK293 [1]): 43.4 µM (inactive)
- IC50 [2]: > 80 µM (inactive)
- AC50 [3]: 16.6 µM (active)
- IC50 (Jurkat [4]): 0.85 µM (active)
- IC50 (HEK293 [5]): 21.8 µM (inactive)

Structure (SMILES): CC(C)(C)c1ccc(-c2noc(CCC(=O)NCC3CCCO3)n2)cc1 (centres undefined)
- AC50 (A-375 [6]): > 35 µM (active)
- EC50 [7]: < 0.1 µM (active)
- IC50 (HEK293 [8]): 1.54 µM (active)
- AC50 [9]: 0.293 µM (active)
- AC50 (A-375 [10]): > 35 µM (active)
- IC50 [11]: > 80 µM (inactive)
- IC50 (HEK293 [1]): 70.9 µM (inactive)
- AC50 [12]: 67.1 µM (active)
- AC50 [13]: < 0.26 µM (active)
- AC50 [14]: 0.359 µM (active)
- AC50 [3]: 0.275 µM (active)
- EC50 [15]: 0.152 µM (active)
- IC50 (Jurkat [16]): 13.4 µM (active)
- EC50 [17]: 9.11 µM (active)
- AC50 [18]: > 70 µM (inactive)
- IC50 [19]: > 39.8 µM (not active)

Structure (SMILES): Cc1ccc(S(=O)(=O)N2CCOCC2)cc1NC(=O)COC(=O)CCC(=O)c1cccs1
- AC50 (Cytochrome P450 2D6): 31.6 µM (inconclusive)
- AC50 (Cytochrome P450 2C19): 39.8 µM (inconclusive)
- AC50 [20]: 87.5 µM (active)
